Several values for one entry are separate records, joined by “and”; a condition that tells them apart may be missing. Equal values may be shown once. Read-outs that look alike come from different tables or passages of the source. Ends that are not written are not given here. * marks the point of attachment. Biotin = O=C1N[C@H]2[C@H](CS[C@H]2CCCCC(=O)*)N1
Experiments:
gp41 MPER tetramer [1] = assay: SPR, captured mAb, tetramer injected
gp41 ID tetramer = assay: SPR, captured mAb, tetramer injected
gp41 ID tetramer, sequence (P22629 37-163 limits assumed): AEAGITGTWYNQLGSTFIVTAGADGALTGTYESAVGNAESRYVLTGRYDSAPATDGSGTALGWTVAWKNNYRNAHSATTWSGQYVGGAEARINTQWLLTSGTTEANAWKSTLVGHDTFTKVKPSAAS

gp41 MPER tetramer [2] = assay: flow cytometry, gp41 MPER tetramer on a mixture of 15% 13H11 hybridoma cells and 85% F39F cells (FIG. 4B); the value follows the mixing ratio
gp41 MPER tetramer [3] = assay: flow cytometry, gp41 MPER tetramer on the 15% 13H11 / 85% F39F cell mixture diluted tenfold with F39F cells (FIG. 4C); the value follows the mixing ratio
gp41 MPER tetramer [4] = assay: flow cytometry, gp41 MPER tetramer on the 13H11 / F39F cell mixture diluted a hundredfold in all with F39F cells (FIG. 4D); the value follows the mixing ratio
[5] = tested on: mAb 7B2 (anti-gp41 immunodominant region); conditions: SPR, mAb 7B2 captured
Procedure: (§1) Surface Plasmon Resonance (SPR) measurements of tetramer binding to peptide epitopes. Tetramer binding assays were carried out on a BIAcore 3000 (BIAcore/GE Healthcare, Piscataway, N.J.) instrument using mAbs against each specific B cell epitope.
(§2) Each mAb (about 1000 RU) was first captured on anti-human Fc mAb (Pierce, Rockford, Ill.) immobilized on a CM5 sensor chip. Approximately 3000 RU of anti-human Fc mAb was covalently coupled to each flow cell of the sensor chip as described before (Alam et al, Journal of Immunology 178:4424-4435 (2007)). Each B cell tetramer was injected over its epitope specific mAb or a control surface immobilized with irrelevant mAb. For each tetramer binding curve, non-specific binding signals obtained from the control surface were subtracted. The binding assay was monitored at 25° C. and using PBS, pH 7.4, as the running buffer. The BIAevaluation 3.0 software (BIAcore/GE Healthcare, Piscataway, N.J.) was used for SPR binding data analyses.

mAb 7B2 on beads = conditions: flow cytometry
Procedure: (§3) Antibody-coated beads. Carboxyl-polystyrene beads (3.0-3.4 μm) (Spherotech, Inc., Lake Forest, Ill.) were resuspended in 0.01 M sodium acetate buffer (pH 5.0) and reacted (20° C.×1 hr) with 1-ethyl-3-(3-dimethylaminopropyl) carbodiimide hydrochloride (EDC) (Sigma-Aldrich, Co., St. Louis, Mo.) at a ratio of 3.1 mg beads to 1 mg EDC. Beads were washed with sodium acetate buffer, resuspended in a minimal volume before adding purified mAb in the same buffer (ratio of 16 mg beads to 1 mg mAb), incubated (20° C.×2 hrs), then washed with sodium acetate buffer. Beads were resuspended at 5% in PBS containing 1% bovine serum albumin and 0.02% sodium azide.
(§4) Use of antibody-coated beads and cell lines for tetramer quality control. Tetramer stocks were diluted to twice the desired final concentration in PBS containing 1% BSA. An equal volume of beads or cells at 5×10^5 up to 2×10^6 per sample were mixed with tetramer and incubated (4° C.×30 min). Beads or cells were washed with PBS+1% BSA before being fixed in 2% methanol-free formaldehyde (Polysciences, Inc, Warrington, Pa.) in PBS. Samples were stored at 4° C. prior to being analyzed by flow cytometry (BD LSR II, Becton Dickinson, Mountain View, Calif.). Data were analyzed using FlowJo (Tree Star, Ashland, Oreg.). For tetramer titration 40-80 ng tetramer per 10^6 cells/beads was serially diluted over 8-12 points. Optimal concentrations determined by this method were used for subsequent experiments. For cold competition experiments the incubation step was performed by staining with 10-fold excess unlabeled tetramer (4° C.×30 min) prior to the addition of APC-labeled tetramer. For cell dilution experiments, a mixture of mAb cell lines was made and then 1:10 serial dilutions of cells prepared. For cross competition experiments, mixtures of cells were prepared and then stained singly with anti-IgG reagents or tetramer, or the cells were doubly stained with both reagents either sequentially or concurrently.

7B2 cells = conditions: flow cytometry
Procedure: as §4

[6] = tested on: total naïve splenic BALB/c B cells; conditions: APC-labeled tetramer
Procedure: (§5) Cell isolation, serum collection, and PBMC isolations. Heparinized or non-heparanized blood was collected sub-mandibularly 10 days after immunizations. For preparation of peripheral blood lymphocytes for B cell tetramer analysis, PBMC were isolated from blood collected in heparinized tubes (0.2 ml) using Lympholyte M (Cederlane). For Luminex and ELISA assays, sera was isolated from non-heparanized blood and stored at −20° C. until use. Spleen, bone marrow (BM), and peritoneal cavity (PerC) cells were also collected. For most immunizations, tissues were harvested after the 4th boost, except for kinetic studies, in which tissues from mice were harvested after 1, 3 or 7 days after a single immunization. For BM preparations, femora and tibiae were removed, aspirated with tissue medium using 23 gauge needles, filtered with 70 μm cell strainers (BD labware), and RBC-depleted using Tris-buffered ammonium chloride lysis. For splenocyte preparation, spleens were harvested and dissociated into single-cell suspensions either by passage through 70 μm cell strainers in tissue medium or by using frosted glass slides, and blood erythrocytes were depleted with ammonium chloride lysis. For isolation of peritoneal cells, peritoneal cavities of sacrificed mice were lavaged by injection with 10 ml of PBS, followed by gentle massage of the abdomen, and withdrawal of the peritoneal exudates. BM, splenic, and peritoneal single cell suspensions were centrifuged at 1500 rpm for 5 min and resuspended in 5, 10, and 1 ml of tissue media, respectively, for cell counts and immunofluorescence staining. Cell counts were performed in duplicate on a Coulter ZI Dual Threshold Cell Counter (Coulter).
(§6) Antibodies and flow cytometry. Immunofluorescent staining of single cell suspensions (≧2×10^6) was conducted using pre-mixed combinations of fluorochrome-labeled antibodies and APC-conjugated B cell tetramers at empirically-determined optimal concentrations. All antibodies were from BD unless otherwise stated. […] Other reagents included biotinylated antibodies against dump channel markers: Thy1 (Ox7; Abcam), F4/80 (BM8; Abcam), CD11c (clone HL3), Gr-1 (clone RB6-8C5), TER-119, and NK-1.1 (clone PK136), secondary staining SA-Texas Red conjugate; v-amine live/dead violet dye (Molecular Probes), and Fc block (anti-CD16/32; clone 2.4G2).
(§7) Staining was conducted at 4° C. in several sequential steps in FACS staining buffer (1×PBS with 2% FCS, 0.1% NaN3), washing twice between steps. First, cells were incubated with v-amine live/dead dye for 15 min. Next, cells were stained with APC-labeled tetramers for 30 min. Where applicable, this was preceded by addition of cold tetramer at 10 fold molar excess for 1 h. Finally, cells were stained with Fc block for 30 min, followed by incubation with combinations of primary antibody cocktails for 30 min, and secondary staining with SA-Texas Red for 30 min.
(§8) Data were acquired using an LSRII flow cytometer and Cell Quest software (BD Immunocytometry systems). A minimum of 250000 events were acquired per sample. FACS Analysis was performed using FlowJo software (Tree Star). For analysis, single cells were positively gated based on their forward scatter height vs. forward scatter area and side scatter height vs. side scatter area profiles, lymphocytes were then positively gated based on their forward and side scatter profile (live lymphocyte gate), residual dead cells were excluded with negative gating on v-amine live/dead dye, and all irrelevant non-B cells were excluded with negative gating on dump markers Thy1, F4/80, CD11c, Gr-1, TER-119, and NK-1.1.

[7] = tested on: B cell subsets from naive C57BL/6 mice
Procedure: as §5, §6, §7, §8
To examine if gp41 2F5 MPER epitope reactivity across B cell subsets mapped similarly on the IgH^b allotype, reactivity to gp41 2F5 MPER tetramers was measured by measuring the percentage of APC-labeled gp41 2F5 MPER tetramer-reactive cells in C57BL/6 bone marrow, splenic, and peritoneal B cell subsets (Table 10).

mAb F39F (anti-gp120 V3) = conditions: SPR, mAb F39F captured, 25° C., PBS pH 7.4
Procedure: as §1, §2

[8] = tested on: V3 loop mAbs 7B9 and F39F on beads; conditions: flow cytometry
Procedure: as §3, §4

F39F cells = conditions: flow cytometry
Procedure: as §4

62.19 V3 tetramer [9] = molecular target: 62.19 V3 tetramer
62.19 V3 tetramer, sequence (P22629 37-163 limits assumed): as above

62.19 V3 tetramer [10] = assay: SPR, captured mAb, tetramer injected
B.con03 V3 tetramer = assay: SPR, captured mAb, tetramer injected
B.con03 V3 tetramer, sequence (P22629 37-163 limits assumed): as above

2F5 mAb = assay: Binding of alanine substituted gp41 MPER tetramers to 2F5 (antibody-coated beads and SPR); parameters: species or system human; conditions: flow cytometry on antibody-coated beads and SPR
Procedure: (§9) Data were analyzed using FlowJo (Tree Star, Ashland, Oreg.).
(§10) Development of gp41 MPER tetramers specific for neutralizing vs. non-neutralizing antibodies. […] Therefore, the next question asked was whether gp41 MPER tetramers could be made that preferentially react with either of these two prototype antibodies that would make it possible to discriminate between neutralizing 2F5-like gp41 MPER antibodies and non-neutralizing 13H11-like MPER antibodies. To address this issue, a series of gp41 MPER tetramers were made with alanine substitutions along the primary sequence (see Table 8) and assayed for the binding of 13H11 or 2F5 by flow cytometry on antibody-coated beads and by SPR (FIGS. 6C and 6D). […] Thus, tetramers made with the A13 or A15 mutant will bind B cells only with surface Ig similar to the non-neutralizing 13H11 antibody while tetramers made with the A14, A18, or A20 mutants will bind B cells only with surface Ig with specificities similar to the neutralizing 2F5 antibody.

13H11 mAb = assay: Binding of alanine substituted gp41 MPER tetramers to 13H11 (antibody-coated beads and SPR); parameters: species or system mouse; conditions: flow cytometry on antibody-coated beads and SPR
Procedure: as §9, §10

gp41 MPER tetramer, sequence (P22629 37-163 limits assumed): as above

## 2F5 (antibody)
gp41 MPER tetramer [1]
  koff: 0.00037 s⁻¹
  kon: 174000 M⁻¹ s⁻¹

## 7B2 (antibody)
gp41 ID tetramer
  koff: 0.0011 s⁻¹
  kon: 1200 M⁻¹ s⁻¹

## 13H11 (antibody)
gp41 MPER tetramer [1]
  koff: 0.0081 s⁻¹
  kon: 206000 M⁻¹ s⁻¹
gp41 MPER tetramer [2]
  percent of cells of the mixture stained with the tetramer: 15.1%
gp41 MPER tetramer [3]
  percent of cells of the mixture stained with the tetramer: 1.47%
gp41 MPER tetramer [4]
  percent of cells of the mixture stained with the tetramer over background: 0.12%

## Biotin-GGGKQLQARVLAVERYLKDQQLLGIWGCSGKLICTTAV (cysteine pairing not given here) [gp41 ID tetramer]
[5]
  koff: 1.1 s^−1 × 10^−3
  kon: 1.2 M^−1s^−1 × 10^3
mAb 7B2 on beads
  binding to antibody-coated beads: bound only to mAb 7B2
7B2 cells
  binding to mAb cell line: bound

## Biotin-GGGNKEQDQAEESLQLWEKLNWL [gp41 MPER scrambled tetramer]
[6]
  binding to total naïve splenic B cells: Negligible binding
[7]; C57BL/6, Bone marrow, Immature
  % of subset binding tetramer ± SEM: 0.10 ± 0.02%
[7]; C57BL/6, Bone marrow, MF
  % of subset binding tetramer ± SEM: 0.09 ± 0.02%
[7]; C57BL/6, Bone marrow, Pro/pre
  % of subset binding tetramer ± SEM: 0.06 ± 0.01%
[7]; C57BL/6, Bone marrow, T1
  % of subset binding tetramer ± SEM: 0.12 ± 0.02%
[7]; C57BL/6, Bone marrow, T2
  % of subset binding tetramer ± SEM: 0.11 ± 0.01%
[7]; C57BL/6, Peritoneum, B1a
  % of subset binding tetramer ± SEM: 0.14 ± 0.03%
[7]; C57BL/6, Peritoneum, B1b
  % of subset binding tetramer ± SEM: 0.13 ± 0.02%
[7]; C57BL/6, Peritoneum, B2
  % of subset binding tetramer ± SEM: 0.15 ± 0.03%
[7]; C57BL/6, Spleen, MF
  % of subset binding tetramer ± SEM: 0.11 ± 0.02%
[7]; C57BL/6, Spleen, MZ
  % of subset binding tetramer ± SEM: 0.09 ± 0.01%
[7]; C57BL/6, Spleen, T1
  % of subset binding tetramer ± SEM: 0.08 ± 0.01%
[7]; C57BL/6, Spleen, T2
  % of subset binding tetramer ± SEM: 0.10 ± 0.02%

## Biotin-GGGQLDSIQKEVYQLGRQLVWCTARLATKLVGKACGIL (cysteine pairing not given here) [gp41 ID scrambled tetramer]
mAb 7B2 on beads
  binding to antibody-coated beads: higher background
7B2 cells
  binding to mAb cell line: higher background

## Biotin-GGGTRPNNNTRKSIHIGPGRAFYTTGEIIGDIRQAH [B.con03 V3 tetramer]
mAb F39F (anti-gp120 V3)
  koff: 0.65 s^−1 × 10^−3
  kon: 83.4 M^−1s^−1 × 10^3
[8]
  binding to antibody-coated beads: bound to both V3 loop mAbs 7B9 and F39F
F39F cells
  binding to mAb cell line: bound

## F39F (antibody)
62.19 V3 tetramer [9]
  % of cells in the tetramer-positive quadrant: 6%
  % of cells positive for both tetramer and anti-IgG: 6.34% and 6.22% and 6.05%
62.19 V3 tetramer [10]
  koff: 0.0006 s⁻¹
  kon: 60500 M⁻¹ s⁻¹
B.con03 V3 tetramer
  koff: 0.00065 s⁻¹
  kon: 83400 M⁻¹ s⁻¹

## QQEKNEQELLELAKWASLWN (QQEKNEQELLELAKWASLWN; also: tetramer with streptavidin) [A13, alanine substituted gp41 MPER tetramer]
2F5 mAb
  binding to 2F5 mAb: eliminated binding

## QQEKNEQELLELDAWASLWN (QQEKNEQELLELDAWASLWN; also: tetramer with streptavidin) [A14, alanine substituted gp41 MPER tetramer]
13H11 mAb
  binding to non-neutralizing mAb 13H11: significantly reduced or eliminated binding

## QQEKNEQELLELDKAASLWN (QQEKNEQELLELDKAASLWN; also: tetramer with streptavidin) [A15, alanine substituted gp41 MPER tetramer]
2F5 mAb
  binding to 2F5 mAb: eliminated binding

## QQEKNEQELLELDKWASAWN (Biotin-GGGQQEKNEQELLELDKWASAWN; also: tetramer with streptavidin) [A18, alanine substituted gp41 MPER tetramer]
13H11 mAb
  binding to non-neutralizing mAb 13H11: significantly reduced or eliminated binding

## QQEKNEQELLELDKWASLWA (QQEKNEQELLELDKWASLWA; also: tetramer with streptavidin) [A20, alanine substituted gp41 MPER tetramer]
13H11 mAb
  binding to non-neutralizing mAb 13H11: significantly reduced or eliminated binding

Source: patent US20090317419A1, “Tetramers” (Duke University, priority 2008, published 2009)
